Experimental data taken from PMC8743659, “C1632 suppresses the migration and proliferation of non‐small‐cell lung cancer cells involving LIN28 and FGFR1 pathway” (Journal of Cellular and Molecular Medicine, 2021).

What was measured:
[1] = system: LIN28B; test: Western blot of LIN28B after FGFR1 inhibition; assay type: cell-based, human; details: Ponatinib, A549 and A549R cell lines
Procedure: The total cell protein was extracted and denaturized at 95°C for 10 min. Samples were separated in SDS‐PAGE gel, then transferred to a PVDF membrane. Then this membrane was blocked with 5% non‐fat milk (solved in TBST) for 2.5 h at room temperature. Blots were probed with relevant primary antibodies against FGFR1 (CST), p‐FGFR1 (CST), MAPK (CST), p‐MAPK (CST), FAK (CST), p‐FAK (CST), MMP‐9 (CST), LIN28B (CST), GAPDH (CST), and β‐actin (proteintech) overnight at 4°C, respectively. Then the lanes were detected with HRP‐conjugated secondary antibodies and visualized using WESTAR SUPERNOVA kit (CYANAGEN).

[2] = system: FGFR1; test: Western blot of FGFR1 signalling in NSCLC cells; assay type: cell-based, human; details: Ponatinib, A549 and A549R cell lines
Procedure: The total cell protein was extracted and denaturized at 95°C for 10 min. Samples were separated in SDS‐PAGE gel, then transferred to a PVDF membrane. […] Blots were probed with relevant primary antibodies against FGFR1 (CST), p‐FGFR1 (CST), MAPK (CST), p‐MAPK (CST), FAK (CST), p‐FAK (CST), MMP‐9 (CST), LIN28B (CST), GAPDH (CST), and β‐actin (proteintech) overnight at 4°C, respectively. Then the lanes were detected with HRP‐conjugated secondary antibodies and visualized using WESTAR SUPERNOVA kit ([…]).

## Cc1ccc(C(=O)Nc2ccc(CN3CCN(C)CC3)c(C(F)(F)F)c2)cc1C#Cc1cnc2cccnn12 [Ponatinib, reference compound]
[1]
  expression of LIN28B: suppressing the expression of LIN28B
[2]
  effect on FGFR1: inhibited FGFR1
